Emax, EC50 and Ki data for two molecules are collected here from patent publication US20230265151A1, “GIP/GLP1 CO-AGONIST COMPOUNDS” (priority 2020, published 2023).

Assay [1] concerns the target T1, hGIPR (Homo sapiens, UniProt P48546).
T1 construct: expressed in transfected cells
T1 sequence (P48546 22-466): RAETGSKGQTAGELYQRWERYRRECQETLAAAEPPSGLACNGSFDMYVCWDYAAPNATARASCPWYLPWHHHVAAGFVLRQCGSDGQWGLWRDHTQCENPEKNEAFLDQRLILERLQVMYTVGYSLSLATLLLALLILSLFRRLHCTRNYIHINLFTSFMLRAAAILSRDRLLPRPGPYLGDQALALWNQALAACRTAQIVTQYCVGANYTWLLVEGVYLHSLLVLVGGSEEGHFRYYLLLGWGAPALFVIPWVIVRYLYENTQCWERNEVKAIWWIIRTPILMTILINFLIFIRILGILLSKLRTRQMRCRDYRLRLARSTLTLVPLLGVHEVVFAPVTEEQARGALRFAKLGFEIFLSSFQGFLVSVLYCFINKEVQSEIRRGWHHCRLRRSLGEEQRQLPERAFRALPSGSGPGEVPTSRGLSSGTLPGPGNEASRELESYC
Nature of the assay: Functional cAMP formation (HTRF) in HEK-293 clonal cells expressing hGIPR, 0.1% bovine casein, without or with 1.0% human serum albumin. The assay is classed as cell-based. Conditions: for Emax: percent of maximal response to GIP(1-42)NH2; for EC50: cAMP, 0.1% bovine casein (no human serum albumin), geometric mean. An outline of the steps: (§1)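 Cells were stimulated with peptide for 30 min at 37° C, then intracellular cAMP was measured by competitive HTRF (665/620 nm ratio) and converted to nM using a cAMP standard curve. Relative EC50 and Emax came from four-parameter logistic fits of percent maximal response against peptide concentration.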

Assay [2] has as its target T2, hGCGR (Homo sapiens, UniProt P47871).
T2 construct: expressed in transfected cells
Nature of the assay: Functional cAMP formation (HTRF) in HEK-293 clonal cells expressing hGCGR, 0.1% bovine casein, without or with 1.0% human serum albumin. The assay is classed as cell-based. The conditions noted are these: cAMP, 37° C. An outline of the steps: as §1

Assay [3] concerns the target T3, human GIP receptor (hGIPR) (Homo sapiens, UniProt P48546).
T3 construct: expressed in transfected cells; crude membranes
T3 sequence (P48546 22-466): T1 sequence (P48546 22-466)
Nature of the assay: [125I]-GIP binding, SPA with membranes of CHO cells expressing hGIPR. On the procedure: Two methods are used for the preparation of crude cell membranes.
Method 1: Frozen cell pellets are lysed on ice in hypotonic buffer containing 50 mM Tris HCl, pH 7.5, and Roche Complete™ Protease Inhibitors with EDTA. […] The homogenate is centrifuged at 4° C. at 1100 × g for 10 minutes. The supernatant is collected and stored on ice while the pellets are resuspended in homogenization buffer and rehomogenized as described above. The homogenate is centrifuged at 1100 × g for 10 minutes. The second supernatant is combined with the first supernatant and centrifuged at 35000 × g for 1 hour at 4° C. The resulting membrane pellet is resuspended in homogenization buffer containing protease inhibitors at approximately 1 to 3 mg/mL, quick frozen in liquid nitrogen and stored as aliquots in a -80° C. freezer until use.
The homogenate is centrifuged at 4° C. at 1800 × g for 15 minutes. The supernatant is collected and stored on ice while the pellets are resuspended in homogenization buffer (without DNAse I) and rehomogenized as described above. The homogenate is centrifuged at 1800 × g for 15 minutes. The second supernatant is combined with the first supernatant and centrifuged an additional time at 1800 × g for 15 minutes. The overall supernatant is then centrifuged at 25000 × g for 30 minutes at 4° C. The resulting membrane pellet is resuspended in homogenization buffer (without DNAse I) containing protease inhibitors at approximately 1 to 3 mg/mL and stored as aliquots in a -80° C. freezer until use.
The binding buffer contains 25 mM HEPES, pH 7.4, 2.5 mM CaCl2, 1 mM MgCl2, 0.1% (w/v) bacitracin, 0.003% (w/v) TWEEN®-20, and Roche Complete™ Protease Inhibitors without EDTA. Peptides and GIP are thawed and 3 fold serially diluted in 100% DMSO (10 point concentration response curves). […] Plates are sealed and mixed on a plate shaker (setting 6) for 1 minute and read with a PerkinElmer Trilux MicroBeta® scintillation counter after 2.5 to 12 hours of incubation/settling time at room temperature.
Raw CPM data for concentration curves of peptides, Gcg, GLP-1, or GIP are converted to percent inhibition by subtracting nonspecific binding (binding in the presence of excess unlabeled Gcg, GLP-1, or GIP, respectively) from the individual CPM values and dividing by the total binding signal, also corrected by subtracting nonspecific binding. Data are analyzed using four-parameter (curve maximum, curve minimum, IC50, Hill slope) nonlinear regression routines (Genedata Screener, version 12.0.4, Genedata AG, Basal, Switzerland). […] Values for Ki are reported as the geometric mean, with error expressed as the standard error of the mean (SEM) and n is equal to the number of independent replicates (determined in assays performed on different days). Geometric Means are calculated as follows: […]
The Ki Ratio (Ki for native control peptide/Ki for test compound) at each receptor and each species is calculated. The Ki Ratio is a rapid indication of the apparent affinity of a peptide compared to the native control peptide.
n=⅟x means that only one value out of the total number of replicates (x) is used to express the mean. SEM is only calculated when n=2 or greater non-qualified results exist. Means are expressed as GeoMetric means with the standard error of the mean (SEM) and the number of replicates (n) indicated in parenthesis.

Assay [4] has as its target hGLP-1R (Homo sapiens, UniProt P43220). Nature of the assay: Functional cAMP formation (HTRF) in HEK-293 clonal cells expressing hGLP-1R, 0.1% bovine casein, without or with 1.0% human serum albumin. Type of assay: cell-based. Also noted: expressed in transfected cells. Conditions: 37° C.; for EC50: cAMP; for Emax: HEK293, cAMP, percent of maximal response to GLP-1(7-36)NH2, read-out: hGLP-1R Emax, % ± SEM. The procedure, abridged:
as §1
Background: Cyclic AMP is a second messenger, typically raised through Gs and lowered through Gi signalling.

In assay [5] the target is T4, human GLP-1 receptor (hGLP-1R) (Homo sapiens, UniProt P43220).
T4 construct: expressed in transfected cells; crude membranes
T4 sequence (P43220 24-463): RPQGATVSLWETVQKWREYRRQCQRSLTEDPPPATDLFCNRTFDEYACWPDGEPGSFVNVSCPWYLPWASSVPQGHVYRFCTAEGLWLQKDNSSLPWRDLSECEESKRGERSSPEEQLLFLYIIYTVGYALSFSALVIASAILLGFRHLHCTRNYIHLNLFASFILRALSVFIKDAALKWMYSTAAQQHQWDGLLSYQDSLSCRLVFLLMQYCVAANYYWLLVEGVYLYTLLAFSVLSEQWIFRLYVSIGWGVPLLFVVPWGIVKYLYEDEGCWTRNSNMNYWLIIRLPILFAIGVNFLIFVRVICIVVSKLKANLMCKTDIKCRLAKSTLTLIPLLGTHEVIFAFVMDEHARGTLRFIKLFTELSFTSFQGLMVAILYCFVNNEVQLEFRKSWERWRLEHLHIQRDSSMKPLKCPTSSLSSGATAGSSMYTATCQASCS
Nature of the assay: [125I]-GLP-1 binding, SPA with membranes of HEK293 cells expressing hGLP-1R. Conditions: human GLP-1R; geometric mean (SEM, n); read-out: Binding Affinity Ki, nM (SEM, n) hGLP-1R.

Read-outs that look alike come from different tables or passages of the source.

Chain of hGLP-1R (P43220 24-463): as above
T2 sequence (P47871 26-477): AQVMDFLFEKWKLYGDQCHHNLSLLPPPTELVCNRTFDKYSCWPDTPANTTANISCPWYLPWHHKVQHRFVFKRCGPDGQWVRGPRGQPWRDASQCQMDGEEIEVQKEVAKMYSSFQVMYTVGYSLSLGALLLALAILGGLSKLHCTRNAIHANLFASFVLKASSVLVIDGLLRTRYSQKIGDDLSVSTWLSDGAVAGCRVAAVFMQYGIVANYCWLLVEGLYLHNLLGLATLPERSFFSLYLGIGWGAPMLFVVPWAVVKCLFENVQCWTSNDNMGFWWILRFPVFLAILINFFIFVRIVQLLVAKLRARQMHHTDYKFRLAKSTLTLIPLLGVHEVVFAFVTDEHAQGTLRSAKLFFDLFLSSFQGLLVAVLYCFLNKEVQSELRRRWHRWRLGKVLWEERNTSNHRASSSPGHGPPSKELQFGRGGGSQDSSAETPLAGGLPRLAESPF

A word on the Emax: it is the maximal effect, on the per cent scale that the assay sets. A word on the EC50: it is the midpoint of the concentration-response curve. One may read the Ki as a dissociation constant, usually derived from enzyme kinetics or from competition with a known ligand. Turning to `CC[C@H](C)[C@H](NC(=O)[C@H](CC(C)C)NC(=O)[C@](C)(Cc1ccc(O)cc1)NC(=O)[C@H](CCCCNC(=O)COCCOCCNC(=O)COCCOCCNC(=O)CC[C@H](NC(=O)CCCCCCCCCOc1ccc(C(=O)O)cc1)C(=O)O)NC(=O)[C@@H](NC(=O)[C@H](Cc1ccccc1)NC(=O)[C@H](CCCN)NC(=O)C(C)(C)NC(=O)[C@H](CCC(N)=O)NC(=O)[C@H](C)NC(=O)[C@H](CCC(N)=O)NC(=O)[C@H](CCCN)NC(=O)[C@H](CC(=O)O)NC(=O)[C@H](CC(C)C)NC(=O)[C@](C)(CC(C)C)NC(=O)[C@@H](NC(=O)C(C)(C)NC(=O)[C@H](Cc1ccncc1)NC(=O)[C@H](CC(=O)O)NC(=O)[C@H](CO)NC(=O)[C@@H](NC(=O)[C@](C)(Cc1ccccc1F)NC(=O)[C@@H](NC(=O)CNC(=O)[C@H](CCC(=O)O)NC(=O)C(C)(C)NC(=O)[C@@H](N)Cc1ccc(O)cc1)[C@@H](C)O)[C@@H](C)O)[C@@H](C)CC)[C@@H](C)CC)C(=O)N[C@@H](CCCCNC(=O)COCCOCCNC(=O)COCCOCCNC(=O)CC[C@H](NC(=O)CCCCCCCCCOc1ccc(C(=O)O)cc1)C(=O)O)C(=O)NCC(=O)NCC(=O)N1CCC[C@H]1C(=O)N[C@@H](CO)C(=O)N[C@@H](CO)C(=O)NCC(=O)N[C@@H](C)C(=O)N1CCC[C@H]1C(=O)N1CCC[C@H]1C(=O)N1CCC[C@H]1C(=O)N[C@@H](CO)C(N)=O` [Example 440], the Emax in assay [1] (HEK293, read-out: hGIPR Emax, % ± SEM, cAMP, 37° C., 0.1% bovine casein and 1.0% human serum albumin) stood at 90.3%. Besides, the 50% effective concentration (EC50) in assay [1] (hGIPR EC50, nM (SEM, n), 37° C.) was 0.0104 nM; in assay [2] (hGCGR EC50, nM (SEM, n), 0.1% bovine casein (no human serum albumin), geometric mean) it was over 10100 nM; in assay [2] (hGCGR EC50, nM (SEM, n), 0.1% bovine casein and 1.0% human serum albumin, geometric mean (SEM, n)), over 10100 nM; in assay [4] (hGLP-1R EC50, nM (SEM, n), 0.1% bovine casein (no human serum albumin), geometric mean), 0.18 nM; in assay [4] (hGLP-1R EC50, nM (SEM, n), 0.1% bovine casein and 1.0% human serum albumin, geometric mean (SEM, n)), 2.74 nM. Moreover, the affinity in assay [3] corresponds to a Ki of 0.0312 nM.
Turning to `CCCCCCCCCCCC(=O)N[C@@H](CCC(=O)NCCOCCOCC(=O)NCCOCCOCC(=O)NCCOCCOCC(=O)NCCCC[C@H](NC(=O)[C@H](CO)NC(=O)[C@@H]1CCCN1C(=O)[C@@H]1CCCN1C(=O)[C@@H]1CCCN1C(=O)[C@H](C)NC(=O)CNC(=O)[C@H](CO)NC(=O)[C@H](CO)NC(=O)[C@@H]1CCCN1C(=O)CNC(=O)CNC(=O)[C@H](CCC(=O)O)NC(=O)[C@@H](NC(=O)[C@H](CC(C)C)NC(=O)[C@](C)(Cc1ccc(O)cc1)NC(=O)[C@@H](CCC(=O)O)NC(=O)[C@@H](NC(=O)[C@H](Cc1ccccc1)NC(=O)[C@H](CCCN)NC(=O)C(C)(C)NC(=O)[C@H](CCC(N)=O)NC(=O)[C@H](C)NC(=O)[C@H](CCCCNC(=O)COCCOCCNC(=O)COCCOCCNC(=O)COCCOCCNC(=O)CC[C@H](NC(=O)CCCCCCCCCCC)C(=O)O)NC(=O)[C@H](CCCN)NC(=O)[C@H](CC(=O)O)NC(=O)[C@H](CC(C)C)NC(=O)[C@](C)(CC(C)C)NC(=O)[C@@H](NC(=O)C(C)(C)NC(=O)[C@H](Cc1ccncc1)NC(=O)[C@H](CC(=O)O)NC(=O)[C@H](CO)NC(=O)[C@@H](NC(=O)[C@](C)(Cc1ccccc1F)NC(=O)[C@@H](NC(=O)CNC(=O)[C@H](CCC(=O)O)NC(=O)C(C)(C)NC(=O)[C@@H](N)Cc1ccc(O)cc1)[C@@H](C)O)[C@@H](C)O)[C@@H](C)CC)[C@@H](C)CC)[C@@H](C)CC)C(N)=O)C(=O)O` [Example 435], the Emax in assay [1] (HEK293, cAMP, 37° C., 0.1% bovine casein and 1.0% human serum albumin, read-out: hGIPR Emax, % ± SEM) amounted to 98.7%; in assay [4] (0.1% bovine casein and 1.0% human serum albumin), 97.8%; in assay [4] (0.1% bovine casein, arithmetic mean) it was 111%. Moreover, the EC50 was 0.00517 nM in assay [1] (37° C., read-out: hGIPR EC50, nM (SEM, n)); over 9950 nM in assay [2] (0.1% bovine casein (no human serum albumin), geometric mean, read-out: hGCGR EC50, nM (SEM, n)); over 9950 nM in assay [2] (0.1% bovine casein and 1.0% human serum albumin, geometric mean (SEM, n), read-out: hGCGR EC50, nM (SEM, n)); 0.0527 nM in assay [4] (0.1% bovine casein (no human serum albumin), geometric mean, read-out: hGLP-1R EC50, nM (SEM, n)). In addition, the inhibition constant Ki in assay [5] came out at 0.122 nM.
